Test results published in patent publication US20260053778A1, “USE OF NOVEL PPAR ACTIVITY MODULATOR FOR PREVENTION, AMELIORATION OR TREATMENT OF DEGENERATIVE BRAIN DISEASES” (POSTECH RESEARCH AND BUSINESS DEVELOPMENT FOUNDATION, priority 2022, published 2026).

Assays:
BV2 cell line = assay: Cell viability assay (MTT), BV2; format: cell-based, mouse; conditions: BV2, 48 h, at higher concentrations
Method: Cell viability was measured by a chromogenic assay that biologically reduces 3-(4,5-dimethyl-thiazol-2-yl)-2,5-diphenyltetrazolium bromide (MTT) to formazan in living cells. Briefly, cells were cultured in 96-well plates in a final volume of 100 μL. After 24 h, the culture medium was replaced with fresh medium containing DTMB compound, and the cells were cultured for another 48 h. Next, MTT (dissolved in PBS at 5 mg/mL) was added to the culture medium. The cells were cultured in the dark at 37° C. for 1 h, and then the supernatant was removed from the wells. The formazan crystals were dissolved by adding total MTT solvent (4 mM HCl and 0.1% Nonidet P-40, both dissolved in isopropanol), and the absorbance was measured at 570 nm using a microplate reader, Infinite 200 Pro NanoQuant microplate reader (TECAN, Switzerland).

primary microglia = assay: Quantitative PCR of inflammation genes in primary microglia; format: cell-based, mouse; conditions: qPCR
Description: In addition, the gene expression levels of Il-6. Il-1 #, and iNOS, which are NF-κB target genes related to chronic inflammation, and Arg-1, an anti-inflammatory marker, were confirmed by quantitative PCR (qPCR) analysis in primary microglia.
Total RNA was isolated using TRI reagent (Molecular Research Center, Cincinnati, OH, USA). RNA was reverse transcribed using the ImProm-II Reverse Transcription System (Promega) according to the manufacturer's instructions. For detection and quantification, the StepOnePlus Real-Time PCR System (Applied Biosystems, Foster City, CA, USA) was used with FastStart Universal SYBR Green Master (Roche, Basel, Switzerland). Real-time qPCR data were analyzed using the comparative CT method.

[1] = tested on: 5×FAD Alzheimer's dementia-induced mice; assay: Immunohistochemistry of gliosis (IBA-1, GFAP) in brain tissue; format: in vivo, mouse; conditions: cerebral cortex and hippocampus, IBA-1 and GFAP staining, 5×FAD mice, DTMB 10 mg/kg orally
Method: The degree of gliosis was confirmed through immunochemical analysis using antibodies against IBA-1, a specific protein of microglia, and GFAP, a specific protein of astrocytes. Specifically, immunohistochemistry was performed in the same manner as in Example 6-1 using anti-Iba1 antibody (Wako, Japan, 1:200) and anti-GFAP antibody (Abcam, Cambridge, UK, 1:200) as primary antibodies.

PPARβ/δ = target: T1, PPARβ/δ (Homo sapiens, UniProt Q03181); assay: GAL4-transactivation assay in HEK293A cells, PPARβ/δ; format: cell-based; conditions: GAL4 reporter, 24 h, compared with GW501516
T1 construct: expressed in transfected cells; host or cells: HEK293A
T1 sequence (Q03181 1-441): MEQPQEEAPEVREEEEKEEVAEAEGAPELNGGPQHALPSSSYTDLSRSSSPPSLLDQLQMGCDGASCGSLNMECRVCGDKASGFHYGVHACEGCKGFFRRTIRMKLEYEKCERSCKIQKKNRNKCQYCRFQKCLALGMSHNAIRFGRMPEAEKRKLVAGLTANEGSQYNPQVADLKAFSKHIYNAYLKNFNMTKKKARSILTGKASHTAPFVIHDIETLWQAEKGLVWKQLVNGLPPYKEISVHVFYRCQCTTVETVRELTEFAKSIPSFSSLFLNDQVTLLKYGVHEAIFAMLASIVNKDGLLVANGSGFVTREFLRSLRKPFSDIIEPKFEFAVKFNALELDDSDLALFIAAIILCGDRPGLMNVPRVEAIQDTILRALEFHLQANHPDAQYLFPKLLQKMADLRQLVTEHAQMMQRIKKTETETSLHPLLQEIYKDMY
Method: A GAL4-transactivation assay experiment was performed to determine whether the drug was bound to the PPAR ligand binding site. HEK293A cells were transfected with GAL4-reporter plasmid and pGL4.74 (Promega, Madison, WI, USA) as an internal standard via electroporation using the Neon Transfection System (Invitrogen, Carlsbad, CA, USA). All vectors were kindly provided by Professor Kanno Yuichiro, Toho University, Japan. After overnight culture, cells were treated with DTMB and each positive control compound for 24 h. Cells were then harvested, resuspended in luciferase lysis buffer (Promega), and incubated on ice for 10 min. Cell debris was removed by centrifugation at 20,000×g, 4° C. for 10 min, and the supernatant was used for the luciferase assay. Luciferase activity was measured using the Dual Luciferase Reporter Assay System (Promega) according to the manufacturer's instructions. In the measurement experiment, firefly luciferase activity was normalized to Renilla luciferase activity. To investigate the concentration-dependent effect of DTMB drug, EC50 values were measured by treating various concentrations of DTMB.

[2] = target: T2, HIS-tagged recombinant PPAR α protein (Homo sapiens, UniProt Q07869); assay: CNBr-drug and protein binding experiment, PPARα; conditions: Western blotting after 24 h incubation
T2 sequence (Q07869 239-466 limits assumed): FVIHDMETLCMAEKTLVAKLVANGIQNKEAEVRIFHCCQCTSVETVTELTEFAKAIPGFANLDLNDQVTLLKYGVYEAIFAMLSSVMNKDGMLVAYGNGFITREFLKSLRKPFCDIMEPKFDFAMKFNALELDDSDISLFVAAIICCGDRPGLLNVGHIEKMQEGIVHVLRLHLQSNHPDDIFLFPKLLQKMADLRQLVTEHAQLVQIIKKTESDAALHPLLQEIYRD
Method: Since the computer prediction program predicted that DTMB binds to PPAR transcription factors, CNBr-drug and protein binding experiments were conducted to confirm whether DTMB actually binds to PPAR. To determine the actual degree of drug-protein binding, the reaction of the protein of the PPAR-α, β/δ, γ ligand-binding portion with the DTMB drug-bound CNBr beads was confirmed through Western blotting.
Specifically, CNBr Sepharose 4B beads were prepared and activated according to the instructions. 100 mg of CNBr-activated Sepharose 4B beads were incubated with drugs or DMSO at 4° C. for 18 h. The drug-bound beads reacted with HIS-tagged recombinant PPAR α, β/δ, and γ proteins. After 24 h of incubation, Western blotting experiments were performed to confirm whether the recombinant proteins bound to the drug-bound beads.

Q: For COc1ccc(-c2cc(=O)oc3c(C)c(OC(=O)[C@H](Cc4c[nH]c5ccccc45)NC(=O)OC(C)(C)C)ccc23)cc1 [DTMB, [4-(4-Methoxyphenyl)-8-methyl-2-oxochromen-7-yl](2S)-3-(1H-indol-3-yl)-2-[(2-methylpropan-2-yl)oxycarbonylamino]propanoate], which “Cytotoxicity (MTT)” value (BV2 cell line) is on record?
A: no cytotoxicity

Q: What about the “Expression of Il-1β” value (primary microglia) of the same compound?
A: decreased

Q: What about the “Expression of Il-6” value (primary microglia) of the same compound?
A: decreased

Q: What about the “Expression of anti-inflammatory marker Arg-1” value (primary microglia) of the same compound?
A: induced

Q: What about the “Expression of iNOS” value (primary microglia) of the same compound?
A: decreased

Q: And the “Hyperactivity of microglia and astrocytes (gliosis)” value [1]?
A: significantly reduced

Q: And the “PPARβ/δ activation versus positive control” value (PPARβ/δ)?
A: activated at a slightly higher concentration than GW501516 and rosiglitazone, respectively

Q: And the “Binding of PPARα ligand-binding protein to drug-bound CNBr beads” value [2]?
A: binds to all subtypes of PPAR
